Data: patent publication US12043630B2, “Polymorphic form of TG02 for treating cancer” (Cothera Bioscience, Inc., priority 2017, dated 2024)
Counter-ions that a name gives are not always drawn. One block for each compound: values may come before it.

What was measured:
[1] = Storage at elevated temperature and relative humidity, re-analysis by XRPD; type: physicochemical; conditions: for XRPD following storage at elevated temperatures and relative humidity: 28 days
From the text: X-ray Powder Diffraction (XRPD or PXRD) diffractograms were collected on a Bruker AXS C2 GADDS, Bruker AXS DB Advance, PANalytical Empyrean, or similar diffractometer using Cu Kα radiation.
Proton NMR was consistent with the proposed structure. However, as the methylene protons of the citric acid overlapped with the D6-DMSO reference peak, the stoichiometric equivalence of citrate acid is slightly offset. […] Differential scanning calorimetry thermal events included a single broad endotherm at 204.5° C. (366.9 J/g).
Proton NMR analysis was consistent with the proposed structure, although there was overlap of the methylene protons of the citrate and the D6-DMSO reference peak. […] (327.7 J/g).
These additional peaks remained throughout the 28 days storage period. This may be caused by dehydration of the hydrate. Proton NMR analysis was consistent with the proposed structure, although there was overlap of the methylene protons of the citrate and the D6-DMSO reference peak. […] Differential scanning calorimetry consisted of a broad, asymmetrical endotherm between 25-115° C. (70.2 J/g) followed by a large endotherm at 186.0° C. (313.4 J/g), possibly due to the sample melt and dissolution of the salt. […] Water content was determined by Karl Fischer analysis to be 3.3%, equating to 1 molar equivalent of water.

[2] = Gravimetric Vapour Sorption (GVS); type: physicochemical; conditions: for Hygroscopicity by GVS analysis / GVS uptake: 25° C.; for GVS uptake: between 0-90% RH
Description: Sorption isotherms were obtained using a SMS DVS Intrinsic moisture sorption analyser, controlled by DVS Intrinsic Control software. The sample temperature was maintained at 25° C. by the instrument controls. The humidity was controlled by mixing streams of dry and wet nitrogen, with a total flow rate of 200 ml/min. The relative humidity was measured by a calibrated Rotronic probe (dynamic range of 1.0-100% RH), located near the sample. The weight change, (mass relaxation) of the sample as a function of % RH was constantly monitored by a microbalance (accuracy±0.005 mg).
Typically, 5-30 mg of sample was placed in a tared mesh stainless steel basket under ambient conditions. The sample was loaded and unloaded at 40% RH and 25° C. (typical room conditions). A moisture sorption isotherm was performed as outlined below (2 scans per complete cycle). The standard isotherm was performed at 25° C. at 10% RH intervals over a 0-90% RH range. Typically, a double cycle (4 scans) was carried out. Data analysis was carried out within Microsoft Excel using the DVS Analysis Suite.
The sample was recovered after completion of the isotherm and re-analysed by XRPD.

[3] = Thermodynamic Aqueous Solubility; type: physicochemical; conditions: aqueous media; for Thermodynamic solubility: 25° C., 24 hours
Description: Aqueous solubility was determined by suspending sufficient compound in relevant media to give a maximum final concentration of ≥10 mg/ml of the parent freeform of the compound. The suspension was equilibrated at 25° C., on a Heidolph plate shaker set to 750 rpm for 24 hours. The pH of the saturated solution was then measured and the suspension filtered through a glass fibre C filter (particle retention 1.2 μm) and diluted appropriately. Quantitation was by HPLC with reference to a standard solution of approximately 0.15 mg/ml in DMSO. Different volumes of the standard, diluted and undiluted sample solutions were injected. The solubility was calculated using the peak areas determined by integration of the peak found at the same retention time as the principal peak in the standard injection.

[4] = Slurry of mixed TG02 citrate polymorphs in solvents, XRPD of recovered solids (Method B); type: physicochemical; conditions: 4 days
Description: Method B: A homogeneous mixture of TG02 Form X (citrate), TG02 Citrate Pattern 1 of U.S. Pat. No. 9,120,815, and TG02 Citrate Pattern 2 of U.S. Pat. No. 9,120,815 was treated with solvent (20 vol.) and agitated for 4 days at different temperatures (5° C., 25° C., and 50° C.). The recovered solids were air dried and analysed by XRPD.

JAK2 = JAK2 (Homo sapiens, UniProt O60674); conditions: cited from earlier work
CDK1 = CDK1 (Homo sapiens, UniProt P06493); conditions: cited from earlier work
FLT3 = molecular target: T1, FLT3 (Homo sapiens, UniProt P36888); conditions: cited from earlier work
T1 sequence (P36888 27-993): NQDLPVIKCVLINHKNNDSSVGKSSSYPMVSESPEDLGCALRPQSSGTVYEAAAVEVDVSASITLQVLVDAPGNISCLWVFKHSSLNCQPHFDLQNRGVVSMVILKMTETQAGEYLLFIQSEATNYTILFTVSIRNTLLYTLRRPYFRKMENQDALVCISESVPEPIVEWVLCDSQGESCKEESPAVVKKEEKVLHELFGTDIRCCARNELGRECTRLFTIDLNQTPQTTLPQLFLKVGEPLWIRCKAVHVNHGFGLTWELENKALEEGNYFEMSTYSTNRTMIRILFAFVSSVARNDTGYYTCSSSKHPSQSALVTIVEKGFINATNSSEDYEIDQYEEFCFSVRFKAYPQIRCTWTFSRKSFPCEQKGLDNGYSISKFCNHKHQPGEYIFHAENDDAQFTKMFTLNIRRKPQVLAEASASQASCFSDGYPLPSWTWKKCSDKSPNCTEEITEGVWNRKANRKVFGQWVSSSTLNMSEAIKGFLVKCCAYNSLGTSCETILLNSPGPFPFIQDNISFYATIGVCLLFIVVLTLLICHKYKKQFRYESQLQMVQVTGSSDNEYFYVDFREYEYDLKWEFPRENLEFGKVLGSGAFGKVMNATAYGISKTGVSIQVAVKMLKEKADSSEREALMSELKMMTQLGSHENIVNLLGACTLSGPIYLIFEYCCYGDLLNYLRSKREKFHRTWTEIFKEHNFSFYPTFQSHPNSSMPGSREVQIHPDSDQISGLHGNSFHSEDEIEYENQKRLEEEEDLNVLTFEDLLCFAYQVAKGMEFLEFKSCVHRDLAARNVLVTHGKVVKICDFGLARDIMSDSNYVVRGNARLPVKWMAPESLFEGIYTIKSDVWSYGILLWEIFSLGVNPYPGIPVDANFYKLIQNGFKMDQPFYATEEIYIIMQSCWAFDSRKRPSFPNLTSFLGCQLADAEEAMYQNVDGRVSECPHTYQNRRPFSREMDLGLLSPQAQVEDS

CDK5 = CDK5 (Homo sapiens, UniProt Q00535); conditions: cited from earlier work
CDK7 = CDK7 (Homo sapiens, UniProt P50613); conditions: cited from earlier work
[5] = tested on: signaling pathways downstream of CDKs, JAK2 and FLT3 in cancer cells; conditions: cited from earlier work
CDK9 = CDK9 (Homo sapiens, UniProt P50750); conditions: cited from earlier work
CDK2 = CDK2 (Homo sapiens, UniProt P24941); conditions: cited from earlier work
tumor cell lines = conditions: cited from earlier work
[6] = tested on: progenitor cells derived from acute myeloid leukemia (AML) and polycythemia vera patients; conditions: cited from earlier work
[7] = 40° C./75% RH, 25° C./97% RH and 60° C./ambient RH

CDK7, sequence (P50613 whole entry): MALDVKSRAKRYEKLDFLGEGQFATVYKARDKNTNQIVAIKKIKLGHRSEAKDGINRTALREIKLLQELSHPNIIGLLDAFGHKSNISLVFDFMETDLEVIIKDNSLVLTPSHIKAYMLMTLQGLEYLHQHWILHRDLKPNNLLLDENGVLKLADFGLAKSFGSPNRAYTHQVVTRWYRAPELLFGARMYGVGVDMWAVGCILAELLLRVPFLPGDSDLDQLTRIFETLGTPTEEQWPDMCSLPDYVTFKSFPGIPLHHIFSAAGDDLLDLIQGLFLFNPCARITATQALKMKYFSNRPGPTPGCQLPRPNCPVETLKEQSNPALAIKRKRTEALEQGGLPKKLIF
CDK7, sequence (P51946 whole entry partner): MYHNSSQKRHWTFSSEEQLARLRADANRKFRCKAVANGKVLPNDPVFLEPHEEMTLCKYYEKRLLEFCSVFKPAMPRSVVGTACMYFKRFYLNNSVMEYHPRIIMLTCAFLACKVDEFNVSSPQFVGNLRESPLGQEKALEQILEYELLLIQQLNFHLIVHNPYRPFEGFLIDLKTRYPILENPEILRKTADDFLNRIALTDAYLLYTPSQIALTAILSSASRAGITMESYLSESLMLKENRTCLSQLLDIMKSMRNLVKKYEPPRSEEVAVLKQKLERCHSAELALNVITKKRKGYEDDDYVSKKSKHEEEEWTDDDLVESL
CDK7, sequence (P51948 whole entry partner): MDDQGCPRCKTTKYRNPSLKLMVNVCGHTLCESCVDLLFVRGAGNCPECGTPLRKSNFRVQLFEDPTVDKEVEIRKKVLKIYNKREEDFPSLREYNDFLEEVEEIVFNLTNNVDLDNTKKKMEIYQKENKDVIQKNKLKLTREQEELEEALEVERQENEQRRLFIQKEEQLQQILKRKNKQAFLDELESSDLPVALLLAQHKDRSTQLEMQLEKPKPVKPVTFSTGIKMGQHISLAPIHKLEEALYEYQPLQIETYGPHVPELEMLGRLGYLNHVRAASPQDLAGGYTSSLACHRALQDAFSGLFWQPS
CDK1, sequence (P06493 whole entry): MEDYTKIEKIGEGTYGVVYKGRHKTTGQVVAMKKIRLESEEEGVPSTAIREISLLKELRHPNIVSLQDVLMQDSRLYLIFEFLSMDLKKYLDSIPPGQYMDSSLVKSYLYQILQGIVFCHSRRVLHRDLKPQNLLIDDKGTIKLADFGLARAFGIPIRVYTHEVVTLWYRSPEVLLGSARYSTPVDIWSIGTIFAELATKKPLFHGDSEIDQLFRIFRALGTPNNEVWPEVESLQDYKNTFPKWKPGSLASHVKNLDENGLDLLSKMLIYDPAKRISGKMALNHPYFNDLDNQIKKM
CDK1, sequence (P14635 whole entry partner): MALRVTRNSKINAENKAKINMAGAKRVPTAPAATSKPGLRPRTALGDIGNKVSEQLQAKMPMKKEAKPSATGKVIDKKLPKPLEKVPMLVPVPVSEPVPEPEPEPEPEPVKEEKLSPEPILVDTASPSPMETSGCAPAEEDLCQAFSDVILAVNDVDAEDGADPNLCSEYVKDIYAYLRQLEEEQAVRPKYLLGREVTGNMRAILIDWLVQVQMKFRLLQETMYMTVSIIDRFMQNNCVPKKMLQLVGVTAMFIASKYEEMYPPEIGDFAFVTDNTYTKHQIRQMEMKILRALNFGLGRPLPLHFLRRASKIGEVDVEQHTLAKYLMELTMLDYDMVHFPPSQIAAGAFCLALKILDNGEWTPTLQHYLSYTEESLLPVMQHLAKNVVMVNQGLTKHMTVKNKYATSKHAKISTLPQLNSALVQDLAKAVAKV
JAK2, sequence (O60674 whole entry): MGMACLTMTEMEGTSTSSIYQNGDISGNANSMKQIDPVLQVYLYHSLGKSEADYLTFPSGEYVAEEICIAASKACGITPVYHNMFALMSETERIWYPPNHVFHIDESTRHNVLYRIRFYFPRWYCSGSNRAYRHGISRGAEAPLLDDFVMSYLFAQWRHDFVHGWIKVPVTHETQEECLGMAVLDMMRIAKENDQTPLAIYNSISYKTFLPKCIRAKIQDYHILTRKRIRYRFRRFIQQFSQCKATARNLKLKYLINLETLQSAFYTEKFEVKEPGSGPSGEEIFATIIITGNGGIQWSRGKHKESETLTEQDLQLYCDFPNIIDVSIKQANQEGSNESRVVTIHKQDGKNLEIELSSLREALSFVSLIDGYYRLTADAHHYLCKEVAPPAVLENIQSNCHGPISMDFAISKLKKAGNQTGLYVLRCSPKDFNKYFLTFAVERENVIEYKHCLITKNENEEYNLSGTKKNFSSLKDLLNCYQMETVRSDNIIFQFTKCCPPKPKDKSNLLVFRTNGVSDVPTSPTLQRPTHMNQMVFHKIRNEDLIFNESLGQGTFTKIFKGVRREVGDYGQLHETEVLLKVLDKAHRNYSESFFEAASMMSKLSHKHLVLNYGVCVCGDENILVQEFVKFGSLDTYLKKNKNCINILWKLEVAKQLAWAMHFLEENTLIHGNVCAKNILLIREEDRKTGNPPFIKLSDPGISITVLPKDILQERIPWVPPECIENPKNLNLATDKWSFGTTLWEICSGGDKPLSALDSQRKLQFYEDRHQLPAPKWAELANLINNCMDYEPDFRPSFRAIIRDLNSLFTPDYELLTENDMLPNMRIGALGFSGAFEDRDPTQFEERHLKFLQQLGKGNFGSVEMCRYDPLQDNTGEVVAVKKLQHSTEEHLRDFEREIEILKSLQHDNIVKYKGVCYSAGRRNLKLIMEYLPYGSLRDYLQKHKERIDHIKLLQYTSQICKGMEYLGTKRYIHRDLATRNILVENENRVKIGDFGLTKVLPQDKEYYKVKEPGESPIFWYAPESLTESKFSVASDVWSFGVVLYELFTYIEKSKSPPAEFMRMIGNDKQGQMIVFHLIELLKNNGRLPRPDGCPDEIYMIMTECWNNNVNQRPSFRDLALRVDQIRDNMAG
CDK5, sequence (Q00535 whole entry): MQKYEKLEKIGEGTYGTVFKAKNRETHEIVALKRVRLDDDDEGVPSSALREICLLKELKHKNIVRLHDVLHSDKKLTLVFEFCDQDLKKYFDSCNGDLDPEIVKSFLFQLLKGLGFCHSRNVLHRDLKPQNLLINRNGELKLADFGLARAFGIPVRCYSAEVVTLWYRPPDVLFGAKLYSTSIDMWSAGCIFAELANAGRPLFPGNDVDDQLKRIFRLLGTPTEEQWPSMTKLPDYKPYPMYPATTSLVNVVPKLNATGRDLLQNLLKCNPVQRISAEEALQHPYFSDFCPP
CDK5, sequence (Q15078 whole entry partner): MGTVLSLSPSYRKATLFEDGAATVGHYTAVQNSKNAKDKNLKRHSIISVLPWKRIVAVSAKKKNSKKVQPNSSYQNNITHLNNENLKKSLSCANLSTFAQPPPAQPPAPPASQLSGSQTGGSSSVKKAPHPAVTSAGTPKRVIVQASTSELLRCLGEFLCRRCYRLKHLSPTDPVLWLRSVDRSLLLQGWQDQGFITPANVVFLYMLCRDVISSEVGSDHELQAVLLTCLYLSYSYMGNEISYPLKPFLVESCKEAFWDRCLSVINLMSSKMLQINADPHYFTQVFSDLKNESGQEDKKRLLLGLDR
CDK9, sequence (P50750 whole entry): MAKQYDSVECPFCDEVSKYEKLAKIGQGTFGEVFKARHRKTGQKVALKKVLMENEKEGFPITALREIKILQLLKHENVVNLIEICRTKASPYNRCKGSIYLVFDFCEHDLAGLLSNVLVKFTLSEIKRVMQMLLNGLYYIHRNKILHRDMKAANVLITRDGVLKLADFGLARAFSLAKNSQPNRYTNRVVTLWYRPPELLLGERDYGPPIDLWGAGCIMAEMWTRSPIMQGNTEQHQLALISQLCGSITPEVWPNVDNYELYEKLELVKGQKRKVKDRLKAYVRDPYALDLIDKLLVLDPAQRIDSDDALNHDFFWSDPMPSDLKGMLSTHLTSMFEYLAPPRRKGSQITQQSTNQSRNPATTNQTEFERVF
CDK9, sequence (O60563 whole entry partner): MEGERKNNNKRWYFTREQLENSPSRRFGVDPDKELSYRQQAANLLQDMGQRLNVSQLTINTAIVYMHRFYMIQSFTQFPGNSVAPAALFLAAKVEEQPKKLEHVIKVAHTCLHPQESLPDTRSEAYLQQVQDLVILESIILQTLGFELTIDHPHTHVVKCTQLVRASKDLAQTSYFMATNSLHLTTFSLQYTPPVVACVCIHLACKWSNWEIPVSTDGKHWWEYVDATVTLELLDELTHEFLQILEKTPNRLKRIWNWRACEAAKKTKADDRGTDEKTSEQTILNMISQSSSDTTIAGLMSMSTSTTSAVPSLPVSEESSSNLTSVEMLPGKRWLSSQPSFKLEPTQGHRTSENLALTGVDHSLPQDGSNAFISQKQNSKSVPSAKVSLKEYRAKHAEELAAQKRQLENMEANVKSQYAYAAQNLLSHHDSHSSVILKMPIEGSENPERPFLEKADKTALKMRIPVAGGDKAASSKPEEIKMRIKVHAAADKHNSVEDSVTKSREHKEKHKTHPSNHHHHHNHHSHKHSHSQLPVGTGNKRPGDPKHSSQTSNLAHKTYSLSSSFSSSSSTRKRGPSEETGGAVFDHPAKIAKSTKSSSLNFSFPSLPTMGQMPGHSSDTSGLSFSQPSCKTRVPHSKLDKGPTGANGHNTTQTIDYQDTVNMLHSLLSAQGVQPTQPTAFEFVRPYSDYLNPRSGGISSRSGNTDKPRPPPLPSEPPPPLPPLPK

XRPD following storage at elevated temperatures and relative humidity [1, 7]: remained unchanged by XRPD
XRPD following GVS analysis [2]: remained unchanged by XRPD
Hygroscopicity by GVS analysis [2]: slightly-hygroscopic
GVS uptake [2]: 1.0%
GVS maximum hysteresis ([2]; between 40-50% RH): 0.2%
Thermodynamic solubility [3]: 330 µg/mL
Structure (SMILES): CN1C/C=C/CCOc2cccc(c2)-c2ccnc(n2)Nc2cccc(c2)C1 [TG02 Citrate Pattern 1, (16E)-14-methyl-20-oxa-5,7,14,26-tetraazatetracyclo[19.3.1.1(2,6).1(8,12)]heptacosa-1(25),2(26),3,5,8(27),9,11,16,21,23-decaene]
XRPD following thermodynamic solubility analysis [3]: form change from TG02 Citrate Pattern 1 to TG02 Citrate Pattern 2

XRPD following storage at elevated temperatures and relative humidity ([1]; 40° C./75% RH and 25° C./97% RH): remained unchanged by XRPD
XRPD following GVS analysis [2]: remained unchanged by XRPD
Hygroscopicity by GVS analysis [2]: hygroscopic
GVS uptake [2]: 3.84%
GVS maximum hysteresis ([2]; between 10-30% RH): 1.4%
XRPD following thermodynamic solubility analysis [3]: remained unchanged by XRPD
Thermodynamic solubility [3]: 230 µg/mL
Structure (SMILES): CN1C/C=C/CCOc2cccc(c2)-c2ccnc(n2)Nc2cccc(c2)C1 [TG02 Citrate Pattern 2, (16E)-14-methyl-20-oxa-5,7,14,26-tetraazatetracyclo[19.3.1.1(2,6).1(8,12)]heptacosa-1(25),2(26),3,5,8(27),9,11,16,21,23-decaene]
XRPD following storage ([1]; 60° C./ambient RH, peaks remained throughout 28 days): additional peaks being present in the XRPD diffractogram after 7 days

Second part, the compound before the results:

Structure (SMILES): CN1C/C=C/CCOc2cccc(c2)-c2ccnc(n2)Nc2cccc(c2)C1 [Form X (citrate), (16E)-14-methyl-20-oxa-5,7,14,26-tetraazatetracyclo[19.3.1.1(2,6).1(8,12)]heptacosa-1(25),2(26),3,5,8(27),9,11,16,21,23-decaene]
XRPD following storage at elevated temperatures and relative humidity [1, 7]: remained unchanged by XRPD
XRPD following GVS analysis [2]: remained unchanged by XRPD
Hygroscopicity by GVS analysis [2]: non-hygroscopic
GVS uptake [2]: 0.13%
GVS maximum hysteresis ([2]; between 40-60% RH): 0.04%
Thermodynamic solubility [3]: 640 µg/mL

Structure (SMILES): CN1C/C=C/CCOc2cccc(c2)-c2ccnc(n2)Nc2cccc(c2)C1 [TG02 (Citrate)]
TG02 (Citrate) Polymorph recovered (XRPD) ([4]; Acetone 20 vol., 5° C.): Form X
TG02 (Citrate) Polymorph recovered (XRPD) ([4]; Acetone 20 vol., 25° C.): Form X
TG02 (Citrate) Polymorph recovered (XRPD) ([4]; Acetone 20 vol., 50° C.): Form X
TG02 (Citrate) Polymorph recovered (XRPD) ([4]; Acetone:H2O (9:1) 20 vol., 5° C.): Pattern 2
TG02 (Citrate) Polymorph recovered (XRPD) ([4]; Acetone:H2O (9:1) 20 vol., 25° C.): Pattern 2
TG02 (Citrate) Polymorph recovered (XRPD) ([4]; Acetone:H2O (9:1) 20 vol., 50° C.): Pattern 2
TG02 (Citrate) Polymorph recovered (XRPD) ([4]; DCM:H2O (9:1) 20 vol., 5° C.): Pattern 2 + Form X
TG02 (Citrate) Polymorph recovered (XRPD) ([4]; DCM:H2O (9:1) 20 vol., 25° C.): Pattern 2
TG02 (Citrate) Polymorph recovered (XRPD) ([4]; DCM:H2O (9:1) 20 vol., 50° C.): Form X
TG02 (Citrate) Polymorph recovered (XRPD) ([4]; EtOAc 20 vol., 5° C.): Pattern 2 + Form X
TG02 (Citrate) Polymorph recovered (XRPD) ([4]; EtOAc 20 vol., 25° C.): Form X
TG02 (Citrate) Polymorph recovered (XRPD) ([4]; EtOAc 20 vol., 50° C.): Form X
TG02 (Citrate) Polymorph recovered (XRPD) ([4]; H2O 20 vol., 5° C.): Pattern 2
TG02 (Citrate) Polymorph recovered (XRPD) ([4]; H2O 20 vol., 25° C.): Pattern 2
TG02 (Citrate) Polymorph recovered (XRPD) ([4]; H2O 20 vol., 50° C.): Pattern 2
TG02 (Citrate) Polymorph recovered (XRPD) ([4]; IPA 20 vol., 5° C.): Form X
TG02 (Citrate) Polymorph recovered (XRPD) ([4]; IPA 20 vol., 25° C.): Form X
TG02 (Citrate) Polymorph recovered (XRPD) ([4]; IPA 20 vol., 50° C.): Form X
TG02 (Citrate) Polymorph recovered (XRPD) ([4]; TBME 20 vol., 5° C.): Pattern 2 + Form X
TG02 (Citrate) Polymorph recovered (XRPD) ([4]; TBME 20 vol., 25° C.): Pattern 2 + Form X
TG02 (Citrate) Polymorph recovered (XRPD) ([4]; TBME 20 vol., 50° C.): Form X
TG02 (Citrate) Polymorph recovered (XRPD) ([4]; THF:H2O (9:1) 20 vol., 5° C.): Pattern 2
TG02 (Citrate) Polymorph recovered (XRPD) ([4]; THF:H2O (9:1) 20 vol., 25° C.): Pattern 2
TG02 (Citrate) Polymorph recovered (XRPD) ([4]; THF:H2O (9:1) 20 vol., 50° C.): Pattern 2

Structure (SMILES): CN1C/C=C/CCOc2cccc(c2)-c2ccnc(n2)Nc2cccc(c2)C1 [TG02, (16E)-14-methyl-20-oxa-5,7,14,26-tetraazatetracyclo[19.3.1.1(2,6).1(8,12)]heptacosa-1(25),2(26),3,5,8(27),9,11,16,21,23-decaene]
Inhibition of JAK2 (JAK2): inhibits
Inhibition of CDK1 (CDK1): inhibits
Inhibition of FLT3 (FLT3): inhibits
Inhibition of CDK5 (CDK5): inhibits
Inhibition of CDK7 (CDK7): inhibits
Inhibition of signaling pathways downstream of CDKs, JAK2 and FLT3 [5]: dose-dependently inhibits
Inhibition of CDK9 (CDK9): inhibits
Inhibition of CDK2 (CDK2): inhibits
Anti-proliferative activity (tumor cell lines; broad range of tumor cell lines): anti-proliferative
Cell cycle arrest and apoptosis (tumor cell lines; tumor cell lines): inducing Gi cell cycle arrest and apoptosis
Sensitivity of primary cultures to TG02 [6]: very sensitive
